Laboratory results: publication PMC11758220, “Identification of a Privileged Scaffold for Inhibition of Sterol Transport Proteins through the Synthesis and Ring Distortion of Diverse, Pseudo-Natural Products” (ACS Central Science, 2025)

Experiments:
Format in all cases: binding
Conditions in all cases: single dose, Dose = 10 µM
Aster-C = biological target: T1, Aster-C (Homo sapiens, UniProt Q8IYS0); assay: Fluorescence polarisation (FP) competition with NBD-cholesterol, Aster-C
T1 construct: -C(318-504); GST (PreScission-cleavable) (N, cleaved yes); made in house; host or cells: E. coli OverExpress C41
T1 sequence (Q8IYS0 318-504): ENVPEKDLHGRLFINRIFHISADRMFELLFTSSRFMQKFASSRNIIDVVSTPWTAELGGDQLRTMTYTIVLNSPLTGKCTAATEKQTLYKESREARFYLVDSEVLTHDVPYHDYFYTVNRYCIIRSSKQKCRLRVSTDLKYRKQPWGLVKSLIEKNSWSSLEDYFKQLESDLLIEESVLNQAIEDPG
Excerpt: (§1) Protein expression constructs
(§2) Human ASTER domains of Aster-A(359-547), -B(364-552) and -C(318-504) were subcloned into a pGEX-6p-2rbs vector, thus introducing the cloning artifact ‘GPLGS’.3 The pGEX-6P-1-GST-OSBP(377- […]
(§3) a gift from James H. Hurley (University of California).4 The pHIS_2His6_Thrombin_STARD4(2-205;C75S) plasmid was a gift from Young Jun Im (Chonnam National University).5 STARD5A was a gift from Nicola Burgess-Brown (Addgene plasmid #42392; http://n2t.net/addgene:42392; […]
(§4) Protein expression and purification […]
(§5) vectors including an N-terminal PreScission-cleavable glutathione S-transferase (GST)-tag were expressed in Escherichia coli (E. coli) OverExpress C41 in Terrific Broth (TB) medium for 16 h at 18 °C after the induction with 0.1 mM isopropyl β-D-1-thiogalactopyranoside (IPTG). Cells were harvested at 3500 × g for 15 minutes and lysed by sonication in buffer containing 50 mM HEPES pH 7.5, 300 mM NaCl, 10 %v/v glycerol, 5 mM dithiothreitol (DTT), 0.1 %v/v Triton X-100 and protease inhibitor mix HP plus (Serva). The lysate was purified by affinity chromatography on a GSTrap FF column (Cytiva) using an ÄKTA Start (Cytiva) in buffer containing 50 mM HEPES pH 7.5, 300 mM NaCl, 10 %v/v glycerol, 5 mM DTT and 0.01 %v/v Triton X-100. The GST-tag was cleaved overnight on the column at 4 °C. The Aster sterol binding domains were further purified by size-exclusion chromatography (SEC) on a HiLoad 16/600 Superdex 75 pg (Cytiva) in buffer containing 20 mM HEPES pH 7.5, 300 mM NaCl, 10 %v/v […]
(§6) STARD5(6-213) harboring an N-terminal His6-Tag were expressed in E. coli BL21(DE3) in Luria-Bertani Broth (LB) medium for approximately 16 h at 18 °C after induction with 0.15 mM IPTG. Cells were harvested at 3500 × g for 15 minutes and lysed by sonication in buffer containing 50 mM HEPES pH 7.5, 150 mM NaCl, 5 %v/v glycerol, 5 mM DTT, 0.1 %v/v Triton X -100 and ethylenediaminetetraacetic acid (EDTA)-free protease inhibitor cocktail (Sigma-Aldrich). The cleared lysate was purified by affinity chromatography on a Ni-NTA Superflow Cartridge (Qiagen) using an ÄKTA Start (Cytiva) in buffer containing 50 mM HEPES pH 7.5, 150 mM NaCl, 5 %v/v glycerol, 5 mM DTT. START domains were eluted by using elution buffer containing 50 mM HEPES pH 7.5, 150 mM NaCl, 5 %v/v glycerol, 5 mM DTT and 500 mM imidazole. Proteins were further purified by SEC on a HiLoad 16/600 Superdex 75 pg (Cytiva) in buffer containing 20 mM HEPES pH 7.5, 150 mM NaCl, 5 %v/v glycerol and 2 mM DTT.
(§7) The ORP domain of human OSBP(377-807) in the pGEX-6p-1 vector with an N-terminal PreScission-cleavable GST-tag was expressed in E. coli OverExpress C41 in LB medium for 16 h at 18 °C after induction with 0.1 mM IPTG. Cells were harvested at 3500 × g for 15 minutes and lysed by sonication in buffer containing 20 mM HEPES pH 7.5, 300 mM NaCl, 10 %v/v glycerol, 5 mM DTT, 0.1 %v/v Triton X-100 and EDTA-free protease inhibitor cocktail (Sigma-Aldrich). The cleared lysate was purified by affinity chromatography on a GSTrap HF column (Cytiva) using an ÄKTA Start (Cytiva) in buffer containing 20 mM HEPES pH 7.5, 300 mM NaCl, 10 %v/v glycerol, 5 mM DTT. OSBP(377 -807) was eluted by using elution buffer containing 20 mM HEPES pH 7.5, 300 mM NaCl, 10 %v/v glycerol, 5 mM DTT and 10 mM reduced glutathione. Proteins were further purified by SEC on a HiLoad 16/600 Superdex 75 pg (Cytiva) using an ÄKTA Explorer (Cytiva) in buffer containing 20 mM HEPES pH 7.5, 150 mM NaCl, 10 %v/v glycerol and 2 mM DTT.
(§8) The ORP domains of human ORP1(534-950) in pET24b(+) and ORP2(49-480) in the pET24b(+) vector including an N-terminal His6-Tag were expressed in E. coli BL21(DE3) in TB medium for approximately 16 h at 18 °C after induction with 0.1 mM IPTG. Cells were collected at 3500 × g for 15 minutes and lysed by sonification in buffer containing 10 mM Tris-HCl pH 8, 300 mM NaCl, 5 % glycerol, 2 mM DTT, 0.1 % Triton X-100 and EDTA-free protease inhibitor cocktail (Sigma-Aldrich). The cleared […]

STARD1 = biological target: T2, STARD1 (Homo sapiens, UniProt P49675); assay: Fluorescence polarisation (FP) competition with NBD-cholesterol, STARD1
T2 construct: STARD1(66-284); made in house; host or cells: E. coli BL21(DE3)
T2 sequence (P49675 66-284): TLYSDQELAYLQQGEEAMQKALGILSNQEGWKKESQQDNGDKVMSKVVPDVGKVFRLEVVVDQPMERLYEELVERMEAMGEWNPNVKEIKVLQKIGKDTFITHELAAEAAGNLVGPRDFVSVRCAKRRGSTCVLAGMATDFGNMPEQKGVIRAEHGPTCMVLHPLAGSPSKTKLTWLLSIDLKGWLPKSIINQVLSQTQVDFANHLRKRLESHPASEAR

STARD5 = biological target: T3, STARD5 (Homo sapiens, UniProt Q9NSY2); assay: Differential scanning fluorimetry (DSF), STARD5
T3 construct: STARD5(6-213); host or cells: E. coli BL21(DE3)
T3 sequence (Q9NSY2 6-213): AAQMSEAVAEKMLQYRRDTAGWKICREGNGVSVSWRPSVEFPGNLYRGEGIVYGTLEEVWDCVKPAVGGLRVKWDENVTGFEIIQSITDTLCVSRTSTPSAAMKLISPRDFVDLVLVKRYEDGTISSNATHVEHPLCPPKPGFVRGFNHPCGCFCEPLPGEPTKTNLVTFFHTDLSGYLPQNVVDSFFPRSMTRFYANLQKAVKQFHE
Excerpt: as §1, §2, §3, §4, §5, §6, §7, §8

SMILES | inhibition at 10 µM (Aster-C) [%] | inhibition at 10 µM (STARD1) [%] | ΔTm at 10 µM (STARD5) [°C] | Aster-C (FP) inhibition (Aster-C) [%] | STARD1 (FP) inhibition (STARD1) [%] | STARD5 (DSF) ΔTm (STARD5) [°C]
C[C@]12CC[C@@H](O)C[C@H]1CCc1nc3ccccc3nc12 [Compound 7a] | 19 | 23 | 0.5 |  |  | 
Cc1cc2nc3c(nc2cc1C)[C@@]1(C)CC[C@@H](O)C[C@H]1CC3 [Compound 7b] | 0.8 | 12 | 0.328 |  |  | 
C[C@]12CC[C@@H](O)C[C@H]1CCc1nc3cc(F)c(F)cc3nc12 [Compound 7c] |  |  |  | -4 | 12 | 0.3
C[C@]12CC[C@@H](O)C[C@H]1CCc1nc3cc(Cl)c(Cl)cc3nc12 [Compound 7d] |  |  |  | -4 | 17 | -0.24
C[C@]12CC[C@@H](O)C[C@H]1CCc1nc3cc(Br)c(Br)cc3nc12 [Compound 7e] |  |  |  | 1.6 | 13 | 0.245
C[C@]12CC[C@@H](O)C[C@H]1CCc1sc(N)nc12 [Compound 8a] | 0 | 5 | 0.0867 |  |  | 
Cc1nc2c(s1)CC[C@@H]1C[C@H](O)CC[C@]21C [Compound 8b] |  |  |  | -1.6 | 8 | 0.175
C[C@]12CC[C@@H](O)C[C@H]1CCc1sc(-c3cccnc3)nc12 [Compound 8c] |  |  |  | 0 | -1.67 | 0.15
COc1ccc(-c2nc3c(s2)CC[C@@H]2C[C@H](O)CC[C@]32C)cc1 [Compound 8d] | 0.8 | 42 | 0.146 |  |  | 
C[C@]12CC[C@@H](O)C[C@H]1CCc1sc(-c3ccc(F)cc3)nc12 [Compound 8e] |  |  |  | -2.4 | 17 | 0.216
C[C@]12CC[C@@H](O)C[C@H]1CCc1[nH]c(-c3ccccc3)nc12 [Compound 9] | -3.2 | 10 | 0.168 |  |  | 
C[C@]12CC[C@@H](O)C[C@H]1CCc1c2[nH]c2ccccc12 [Compound 10a] |  |  |  | 0.8 | 35 | 0.373
C[C@]12CC[C@@H](O)C[C@H]1CCc1c2[nH]c2ccc(Br)cc12 [Compound 10b] |  |  |  | -5 | -23 | 0.131
C[C@]12CC[C@@H](O)C[C@H]1CCc1c2[nH]c2ccc(Cl)cc12 [Compound 10c] |  |  |  | -8 | -12 | 0.161
C[C@]12CC[C@@H](O)C[C@H]1CCc1c2[nH]c2ccc(F)cc12 [Compound 10d] |  |  |  | -3.2 | 90 | 0.145
Cc1ccc2[nH]c3c(c2c1)CC[C@@H]1C[C@H](O)CC[C@]31C [Compound 10e] | 1.6 | -3.33 | 0.2 |  |  | 
COc1ccc2[nH]c3c(c2c1)CC[C@@H]1C[C@H](O)CC[C@]31C [Compound 10f] | 0 | -1.67 | 0.159 |  |  | 
CC12CCC(O)CC1CCc1c2[nH]c2ccc(C(F)(F)F)cc12 (stereo not drawn) [Compound 10g] | -5 | -35 | 0.162 |  |  | 
C[C@]12CC[C@@H](O)C[C@H]1CCc1c2[nH]c2ccc(I)cc12 [Compound 10h] |  |  |  | 24 | 15 | 0.241
C[C@]12CC[C@@H](O)C[C@H]1CCc1c2[nH]c2c(F)cc(Cl)cc12 [Compound 10i] | -1.6 | -13 | 0.421 |  |  | 
Cc1cc(C)c2c3c([nH]c2c1)[C@@]1(C)CC[C@@H](O)C[C@H]1CC3 [Compound 10j] | 0.8 | 17 | -0.163 |  |  | 
CCOC(=O)c1ccc2[nH]c3c(c2c1)CC[C@@H]1C[C@H](O)CC[C@]31C [Compound 10k] |  |  |  | -6 | -12 | 0.2
C[C@]12CC[C@@H](O)C[C@H]1CCC(=O)c1ccccc1NC2=O [Compound 11a] |  |  |  | -3.2 | 7 | 0.0733
C[C@]12CC[C@@H](O)C[C@H]1CCC(=O)c1cc(Br)ccc1NC2=O [Compound 11b] | -2.4 | 0 | 0.3 |  |  | 
Cc1ccc2c(c1)C(=O)CC[C@@H]1C[C@H](O)CC[C@]1(C)C(=O)N2 [Compound 11c] | -5.6 | 25 | -0.119 |  |  | 
